ChEMBL document CHEMBL1201862, “PubChem BioAssay data set” (2004)
Values belong to the compound of their own block, whether it stands above or below them. Activity calls are given as the source filed them.

Tests used:
[1] = target: T1, Heat shock 70 kDa protein 1A (Homo sapiens, UniProt P0DMV8); assay: Hsp70 inhibitors, biochemical, TR-FRET (AID 786)
[2] = target: T1, Heat shock 70 kDa protein 1A; assay: Hsp70 inhibitors, probe displacement, primary screen, biochemical, fluorescence polarization (AID 583)
[3] = THP-1 cell cytotoxicity, dose response, cytotoxicity control for Vif-APOBEC3G degradation inhibitor project, THP-1 cells (AID 1117359); type: functional; conditions: Human immunodeficiency virus 1, THP-1
[4] = target: Albumin (Bos taurus, UniProt P02769); assay: Counterscreen for inhibitors of T-cell receptor (TCR)-CD3 interaction: Fluorescence-based biochemical high throughput dose response assay to identify inhibitors of T-cell receptor (TCR)-CD3 interaction using a TAMRA-labeled BSA probe.; type: functional
Albumin, sequence (P02769 whole entry): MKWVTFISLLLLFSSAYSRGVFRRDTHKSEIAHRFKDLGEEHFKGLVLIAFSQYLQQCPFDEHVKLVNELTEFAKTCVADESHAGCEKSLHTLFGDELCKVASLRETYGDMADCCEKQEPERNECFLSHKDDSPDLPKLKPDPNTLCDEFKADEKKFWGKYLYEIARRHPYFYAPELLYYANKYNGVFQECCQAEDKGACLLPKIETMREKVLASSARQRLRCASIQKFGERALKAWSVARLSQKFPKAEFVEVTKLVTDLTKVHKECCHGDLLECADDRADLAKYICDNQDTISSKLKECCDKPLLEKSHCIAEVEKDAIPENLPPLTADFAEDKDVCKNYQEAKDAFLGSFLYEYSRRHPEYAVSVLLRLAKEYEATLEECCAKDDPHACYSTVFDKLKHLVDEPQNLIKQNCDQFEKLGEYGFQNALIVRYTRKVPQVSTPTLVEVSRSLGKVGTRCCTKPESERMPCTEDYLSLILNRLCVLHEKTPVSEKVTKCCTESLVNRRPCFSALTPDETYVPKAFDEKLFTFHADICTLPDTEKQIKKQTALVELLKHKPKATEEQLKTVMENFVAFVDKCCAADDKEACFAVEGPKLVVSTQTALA

[5] = target: Large T antigen (Simian virus 40, UniProt P03070); type: functional, Betapolyomavirus macacae;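 note: Confirmatory-stage PubChem screen for compounds that inhibit SV40 T antigen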
Large T antigen, sequence (P03070 whole entry): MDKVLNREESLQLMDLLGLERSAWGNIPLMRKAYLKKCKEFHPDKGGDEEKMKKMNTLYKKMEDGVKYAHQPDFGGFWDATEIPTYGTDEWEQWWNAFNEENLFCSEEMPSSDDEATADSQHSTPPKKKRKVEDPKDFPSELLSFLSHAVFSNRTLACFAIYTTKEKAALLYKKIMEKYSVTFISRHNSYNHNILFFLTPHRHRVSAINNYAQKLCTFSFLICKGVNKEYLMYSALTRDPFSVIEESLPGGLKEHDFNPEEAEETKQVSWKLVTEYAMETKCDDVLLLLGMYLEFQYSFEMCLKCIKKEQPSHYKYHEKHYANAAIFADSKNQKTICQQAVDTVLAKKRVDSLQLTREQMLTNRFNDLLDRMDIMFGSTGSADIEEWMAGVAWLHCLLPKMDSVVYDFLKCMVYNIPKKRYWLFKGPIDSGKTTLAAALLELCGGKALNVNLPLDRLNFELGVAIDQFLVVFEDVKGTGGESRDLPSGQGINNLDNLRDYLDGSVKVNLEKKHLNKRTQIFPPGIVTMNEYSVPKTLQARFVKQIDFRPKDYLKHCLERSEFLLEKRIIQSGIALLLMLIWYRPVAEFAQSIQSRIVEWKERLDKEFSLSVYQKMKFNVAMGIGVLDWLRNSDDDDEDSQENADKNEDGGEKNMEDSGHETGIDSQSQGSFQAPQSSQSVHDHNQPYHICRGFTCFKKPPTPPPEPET

[6] = target: Neurotensin receptor type 1 (Homo sapiens, UniProt P30989); type: functional;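 note: Image-based confirmatory dose-response assay measuring agonist activity at NTR1; NTR1-expressing U2OS osteosarcoma cells imaged for beta-arrestin GFP spot formation; agonist potency where compounds increase beta-arrestin recruitment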
Neurotensin receptor type 1, sequence (P30989 whole entry): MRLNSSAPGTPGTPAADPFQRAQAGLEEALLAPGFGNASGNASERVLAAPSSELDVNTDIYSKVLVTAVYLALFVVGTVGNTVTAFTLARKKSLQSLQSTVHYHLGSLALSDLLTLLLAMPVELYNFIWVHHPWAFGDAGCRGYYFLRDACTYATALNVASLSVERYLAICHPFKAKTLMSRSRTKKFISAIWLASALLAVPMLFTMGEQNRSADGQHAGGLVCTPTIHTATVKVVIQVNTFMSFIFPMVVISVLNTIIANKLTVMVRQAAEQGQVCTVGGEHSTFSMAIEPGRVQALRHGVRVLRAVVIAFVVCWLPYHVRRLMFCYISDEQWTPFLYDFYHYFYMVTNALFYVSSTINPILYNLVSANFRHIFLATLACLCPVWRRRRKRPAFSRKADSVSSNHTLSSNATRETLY

[7] = target: T2, SUMO-activating enzyme (Homo sapiens, UniProt Q9UBT2); assay: inhibitors of in vitro SUMOylation cascade, primary screen, biochemical, HTRF, uHTS (AID 2006); type: protein-complex assay
T2 sequence (Q9UBE0 whole entry): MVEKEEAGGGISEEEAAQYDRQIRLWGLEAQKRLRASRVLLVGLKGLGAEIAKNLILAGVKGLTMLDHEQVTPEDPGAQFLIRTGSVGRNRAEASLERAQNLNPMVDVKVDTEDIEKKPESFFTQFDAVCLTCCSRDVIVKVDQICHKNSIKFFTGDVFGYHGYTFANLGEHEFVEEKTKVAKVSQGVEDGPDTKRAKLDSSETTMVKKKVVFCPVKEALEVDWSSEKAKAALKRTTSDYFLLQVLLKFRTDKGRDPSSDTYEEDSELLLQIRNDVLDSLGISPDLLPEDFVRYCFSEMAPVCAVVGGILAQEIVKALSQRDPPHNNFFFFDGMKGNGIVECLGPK
T2 sequence (Q9UBT2 whole entry): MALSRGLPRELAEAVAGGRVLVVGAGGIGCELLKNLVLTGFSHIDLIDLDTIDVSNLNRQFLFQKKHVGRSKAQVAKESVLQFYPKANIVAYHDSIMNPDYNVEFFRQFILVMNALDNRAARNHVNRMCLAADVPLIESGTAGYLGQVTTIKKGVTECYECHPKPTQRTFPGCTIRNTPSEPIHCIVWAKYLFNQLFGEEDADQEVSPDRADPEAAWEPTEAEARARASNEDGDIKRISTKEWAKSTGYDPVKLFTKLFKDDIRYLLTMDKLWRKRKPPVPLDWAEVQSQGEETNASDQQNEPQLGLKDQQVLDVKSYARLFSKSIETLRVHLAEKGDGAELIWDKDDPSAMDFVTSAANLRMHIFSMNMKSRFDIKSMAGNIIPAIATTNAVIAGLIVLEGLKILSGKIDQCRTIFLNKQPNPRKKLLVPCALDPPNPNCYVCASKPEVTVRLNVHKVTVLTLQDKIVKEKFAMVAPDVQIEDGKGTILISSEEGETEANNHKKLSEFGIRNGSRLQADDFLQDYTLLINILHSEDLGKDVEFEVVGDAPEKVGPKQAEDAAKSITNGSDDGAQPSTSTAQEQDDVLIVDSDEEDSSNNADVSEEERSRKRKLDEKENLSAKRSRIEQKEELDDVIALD

[8] = target: T2, SUMO-activating enzyme; assay: SUMOylation inhibitor hit validation, confirmation, SUMOylation inhibitor project, biochemical, AlphaScreen (AID 2018); type: functional
[9] = target: 72 kDa type IV collagenase (Homo sapiens, UniProt P08253); assay: Dose Response validation of uHTS RPN11 inhibitor hits using a MMP-2 Fluorescence assay.; type: functional
[10] = target: 26S proteasome non-ATPase regulatory subunit 14 (Homo sapiens, UniProt O00487); assay: inhibition of proteasome subunit RPN11 – biochemical, fluorescence polarization, uHTS hits, confirmation (AID 602368); type: functional
26S proteasome non-ATPase regulatory subunit 14, sequence (O00487 whole entry): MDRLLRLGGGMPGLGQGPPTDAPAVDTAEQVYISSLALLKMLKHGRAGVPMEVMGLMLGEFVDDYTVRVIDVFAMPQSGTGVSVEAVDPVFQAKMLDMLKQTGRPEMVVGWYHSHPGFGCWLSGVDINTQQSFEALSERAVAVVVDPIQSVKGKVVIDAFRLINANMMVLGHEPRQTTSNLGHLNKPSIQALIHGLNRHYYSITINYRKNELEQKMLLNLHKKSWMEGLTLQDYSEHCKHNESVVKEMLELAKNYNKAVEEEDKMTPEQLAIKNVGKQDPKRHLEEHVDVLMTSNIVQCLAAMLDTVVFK

[11] = target: Induced myeloid leukemia cell differentiation protein Mcl-1 (Homo sapiens, UniProt Q07820); type: functional
Induced myeloid leukemia cell differentiation protein Mcl-1, sequence (Q07820 whole entry): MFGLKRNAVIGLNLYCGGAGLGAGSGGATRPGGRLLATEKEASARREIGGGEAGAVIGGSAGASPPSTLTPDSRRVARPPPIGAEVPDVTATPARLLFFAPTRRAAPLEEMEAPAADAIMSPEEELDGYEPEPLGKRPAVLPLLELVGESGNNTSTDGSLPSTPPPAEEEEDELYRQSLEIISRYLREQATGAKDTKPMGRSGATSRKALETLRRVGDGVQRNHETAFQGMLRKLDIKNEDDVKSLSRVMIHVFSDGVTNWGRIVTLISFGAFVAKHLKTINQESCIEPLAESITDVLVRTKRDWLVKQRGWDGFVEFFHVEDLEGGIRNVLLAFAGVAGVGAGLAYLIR

[12] = target: Prothrombin (Bos taurus, UniProt P00735); assay: thrombin inhibition, dose response, biochemical, fluorescence polarization, uHTS hits (AID 602369); type: functional
[13] = target: NS3 (Hepatitis C virus, UniProt A3EZJ3); assay: PubChem AID 2173; set-up: species or system Hepacivirus hominis
NS3, sequence (A3EZJ3 whole entry): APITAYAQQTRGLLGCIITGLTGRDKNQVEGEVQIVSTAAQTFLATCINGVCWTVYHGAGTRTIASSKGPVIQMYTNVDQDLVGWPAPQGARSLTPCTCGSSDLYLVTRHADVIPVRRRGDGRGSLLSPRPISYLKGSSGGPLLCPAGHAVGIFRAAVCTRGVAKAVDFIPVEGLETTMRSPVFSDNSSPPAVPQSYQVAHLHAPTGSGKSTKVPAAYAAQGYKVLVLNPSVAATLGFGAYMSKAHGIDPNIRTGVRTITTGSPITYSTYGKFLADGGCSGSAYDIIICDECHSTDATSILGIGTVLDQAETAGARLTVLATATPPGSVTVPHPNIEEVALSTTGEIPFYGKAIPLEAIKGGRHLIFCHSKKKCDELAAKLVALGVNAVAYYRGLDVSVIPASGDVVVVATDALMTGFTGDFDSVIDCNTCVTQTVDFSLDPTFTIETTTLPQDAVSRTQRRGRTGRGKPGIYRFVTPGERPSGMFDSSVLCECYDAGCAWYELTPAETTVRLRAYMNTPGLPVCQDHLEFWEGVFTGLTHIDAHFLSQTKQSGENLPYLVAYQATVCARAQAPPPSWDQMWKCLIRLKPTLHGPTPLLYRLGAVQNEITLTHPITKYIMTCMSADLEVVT

[14] = cytotoxicity in HEK-293T cells, dose response, cytotoxicity control for BCR NF-kB inhibitor project, luminescence, B-cell screen hits (AID 489021); type: functional, cell-based;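 note: HEK-293T cells carrying an NF-kB luciferase reporter; cells exposed to compound for about 14 hours before viability readout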

T1 sequence (P0DMV8 whole entry): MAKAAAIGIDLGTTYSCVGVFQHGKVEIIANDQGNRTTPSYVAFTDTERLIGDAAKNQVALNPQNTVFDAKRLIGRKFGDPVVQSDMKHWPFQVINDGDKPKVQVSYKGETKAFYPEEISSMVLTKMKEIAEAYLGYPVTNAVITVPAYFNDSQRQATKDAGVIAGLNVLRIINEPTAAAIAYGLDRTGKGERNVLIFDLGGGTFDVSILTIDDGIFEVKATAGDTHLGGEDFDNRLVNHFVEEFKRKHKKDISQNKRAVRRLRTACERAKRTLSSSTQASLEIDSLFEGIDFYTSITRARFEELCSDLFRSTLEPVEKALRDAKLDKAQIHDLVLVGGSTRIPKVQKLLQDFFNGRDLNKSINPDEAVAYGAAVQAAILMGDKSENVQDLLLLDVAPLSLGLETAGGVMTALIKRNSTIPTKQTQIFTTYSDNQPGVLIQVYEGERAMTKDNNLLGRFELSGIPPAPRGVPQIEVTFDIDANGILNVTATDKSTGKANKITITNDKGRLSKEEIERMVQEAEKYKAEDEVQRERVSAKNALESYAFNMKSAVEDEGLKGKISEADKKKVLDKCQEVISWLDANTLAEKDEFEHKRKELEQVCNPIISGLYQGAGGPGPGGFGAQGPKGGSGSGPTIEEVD

IC50 [1]: > 100 µM (not active)
IC50 [2]: > 100 µM (not active)
SMILES: C=CCOC(=O)C(C#N)c1nc2ccccc2nc1N1CCCC1 (centres undefined)

IC50 [13]: 45.7 µM (not active)
SMILES: COc1ccc2[nH]c3c(=O)n(CCCC(=O)NC4CCCCC4C)c(=S)[nH]c3c2c1 (centres undefined)

More lines, now with the values behind:

SMILES: O=c1cc(-c2ccc(O)cc2)oc2cc(O)c(C3OC(CO)C(O)C(O)C3O)c(O)c12 (centres undefined)
CC50 [3]: > 40 µM (active)
IC50 [4]: > 94.1 µM (inactive)
IC50 [5]: 21.4 µM (active)
EC50 [6]: 2.71 µM (active)

SMILES: Cc1ccc(CSc2nnc(SCC(=O)N/N=C/c3c[nH]c4ccccc34)s2)cc1
IC50 [7]: 17.6 µM (active)
IC50 [8]: 1.38 µM (active)
IC50 [9]: > 100 µM (inactive)
IC50 [10]: 6.88 µM (active)
IC50 [11]: 3.91 µM (active)
IC50 [12]: 55.4 µM (active)

SMILES: COc1cc(C[C@@H]2C(=O)OC[C@H]2Cc2ccc(OC)c(OC)c2)ccc1O
IC50 [14]: > 80 µM (inactive)
